The values below come from PubChem BioAssay AID1996.

One may read the solubility (kinetic) as the concentration staying in solution when a stock, usually in DMSO, is diluted into the medium.

Molecules are shown by their SMILES. Converted amounts (≈) assume the structure as drawn.

For this data set the following is noted: buffer; pH 7.4; 200.0 µM.
Regarding `COc1ccc2c(c1)c(C(=O)C(C)N1CCCCC1)c(C)n2C` (configuration not stated), the kinetic solubility was < 0.3 µg/mL.
Turning to `CN(Cc1ccccc1)C(=O)c1ccc2c(c1)S(=O)(=O)N=C1CCCCCN12`, the kinetic solubility is > 59.6 µg/mL.
In turn, `COc1ccc(CNC(=O)CCc2c[nH]c3ccccc23)cc1` yielded a kinetic solubility of 24.6 µg/mL (≈ 79.8 µM).
Regarding `CCC(CC)C(=O)c1c[nH]c(C(=O)NCc2ccccn2)c1`, the kinetic solubility was > 44.9 µg/mL.
The compound `CS(=O)(=O)N(CC(=O)NCCSCc1cccc(Cl)c1)c1ccc(F)cc1` displayed a kinetic solubility of 38 µg/mL (≈ 88.2 µM).
Compound `O=C(OCC(=O)N1CCC(Cc2ccccc2)CC1)c1cccnc1Cl` showed a kinetic solubility of 46.2 µg/mL (≈ 124 µM).
As to `Cc1ccc(NC(=O)c2ccccn2)c(Br)c1`, the solubility (kinetic) is < 0.3 µg/mL.
Regarding `N#C/C(=C\c1ccncc1)c1ccccn1`, the solubility (kinetic) is > 31.1 µg/mL.
As for `COC(=O)Cn1c2ccc(C)cc2c2nc3ccccc3nc21`, the solubility (kinetic) was < 0.2 µg/mL.
In the case of `NC(=O)COc1c(-c2ccc(Br)o2)oc2ccccc2c1=O`, the solubility (kinetic) amounted to 11.1 µg/mL (≈ 30.5 µM).
With `O=C(COC(=O)CC1CCCC1)Nc1cccc(F)c1` the figure was > 41.9 µg/mL.
`O=C(Nc1cccc(Cl)c1)c1cncn1-c1ccc(F)cc1` yielded a solubility (kinetic) of 45.4 µg/mL (≈ 144 µM).
With `CCOC(=O)c1ccccc1CN1C(=O)c2ccccc2S1(=O)=O`, the solubility (kinetic) is < 0.7 µg/mL.
As for `O=C1NCCCCC1NS(=O)(=O)c1ccc(Cl)cc1` (configuration not stated), the solubility (kinetic) was > 45.4 µg/mL.
Turning to `COc1ccc(OCCN2C(=O)c3cccc(N)c3C2=O)cc1`, the kinetic solubility turned out to be 1.1 µg/mL (≈ 3.52 µM).
As for `COc1ccc(NS(=O)(=O)c2ccc3oc(=S)[nH]c3c2)cc1`, the solubility (kinetic) is > 50.5 µg/mL.
`Cc1ccc(S(=O)(=O)NCc2ccncc2)c(C)c1C` displayed a solubility (kinetic) of 34.7 µg/mL (≈ 119 µM).
`CCc1ccccc1NC(=O)COc1ccc2c(c1)OCO2` yielded a solubility (kinetic) of 41.4 µg/mL (≈ 138 µM).
Compound `Cc1cc(C(=O)O)c(C)n1Cc1ccncc1` registered a kinetic solubility of 32.2 µg/mL (≈ 140 µM).
As for `COC(=O)c1sc(SC)c(S(=O)(=O)C(C)C)c1N`, the kinetic solubility came to 3.8 µg/mL (≈ 12.3 µM).
As for `Cc1csc(NC(=O)C2=COCCO2)n1`, the kinetic solubility is > 33.9 µg/mL.
For `CCOC(=O)CCCCNC(=O)Nc1ccccc1`, the solubility (kinetic) was > 39.6 µg/mL.
The compound `Cc1onc(-c2ccccc2Cl)c1C(=O)N1CCC(C(N)=O)CC1` had a kinetic solubility of 50.7 µg/mL (≈ 146 µM).
For the compound `Cc1ccc(CNC(=O)Cc2ccc(Br)cc2)cc1`, the kinetic solubility is < 0.7 µg/mL.
`O=c1c2ccccc2nc(/C=C/c2ccc(F)cc2)n1-c1ccccc1O` showed a kinetic solubility of 5.2 µg/mL (≈ 14.5 µM).
`O=C1CC2c3ccccc3C1C1C(=O)N(CCO)C(=O)C21` (configuration not stated): the kinetic solubility was > 42.8 µg/mL.
With `O=C(CN1C(=O)NC2(CCCCCC2)C1=O)c1ccc(F)cc1` the figure was > 47.8 µg/mL; with `Cn1c(N)c(C(=O)COC(=O)Cc2ccc(Cl)c(Cl)c2)c(=O)n(C)c1=O`, 25.7 µg/mL (≈ 64.2 µM).
With `COc1ccc(C2(CNC(=O)c3ccccc3)CCOCC2)cc1`, the kinetic solubility was > 48.8 µg/mL.
In turn, `CC(=O)Nc1ccc(NC(=O)CCOc2cc(C)ccc2C)cc1` came in with a kinetic solubility of 2 µg/mL (≈ 6.13 µM).
With `COc1cccc(C(=O)Nc2cc3c4c(c2)CC(=O)N4CCC3)c1` the figure was > 48.4 µg/mL.
For `O=C(COC(=O)c1ccc2c(c1)OCO2)Nc1ccccc1Cl`, the kinetic solubility stood at 3.5 µg/mL (≈ 10.5 µM).
For `COc1ccc(C(=O)Nc2cc(OC)c(Cl)cc2OC)cc1`, the solubility (kinetic) was < 0.7 µg/mL.
The compound `CC(=O)Nc1ccc(Oc2nc(-c3ccccn3)nc3ccccc23)cc1` had a solubility (kinetic) of 6.8 µg/mL (≈ 19.1 µM).
`CCOc1ncccc1C(=O)Nc1ccc(C)cn1` displayed a kinetic solubility of 31.8 µg/mL (≈ 124 µM).
As for `CC(C(=O)Nc1cccc([N+](=O)[O-])c1)N1C(=O)NC2(CCCC2)C1=O` (configuration not stated), the solubility (kinetic) was > 52 µg/mL.
Compound `Cc1ccc(NC(=O)C2COc3ccccc3O2)cc1` (configuration not stated) yielded a kinetic solubility of 13.3 µg/mL (≈ 49.4 µM).
As to `Cc1ccc(-n2nc(C)cc2NC(=O)CC#N)cc1`, the kinetic solubility was > 38.1 µg/mL.
As to `CC(C)(CN1CCCC1)NS(=O)(=O)c1ccc(Cl)cc1`, the kinetic solubility was > 47.5 µg/mL.
Consider `O=C(O)CSc1ncccn1`, for which the solubility (kinetic) was > 25.5 µg/mL.
For the compound `O=c1cc(-c2ccc(Cl)cc2)oc(=O)[nH]1`, the solubility (kinetic) was > 33.5 µg/mL.
`Cc1ccc(C2N=C(N)Nc3nc(=O)c4ccccc4n32)cc1` (configuration not stated) gave a solubility (kinetic) of 3.1 µg/mL (≈ 10.2 µM).
For `N#CC1(NC(=O)CSc2nnc3n2CCCCC3)CCCCC1`, the kinetic solubility was > 50 µg/mL.
As to `CC(NC(=O)CN1C(=O)NC2(CCCCCCC2)C1=O)c1ccccc1` (configuration not stated), the kinetic solubility was > 53.6 µg/mL.
Regarding `O=C(O)C1CCN(C(=O)c2ccc3c(c2)OCO3)CC1`, the kinetic solubility turned out to be 36.2 µg/mL (≈ 131 µM).
In the case of `NC(=O)NC(=O)COC(=O)c1ccc(OC(F)F)cc1` it was 9.9 µg/mL (≈ 34.4 µM); in that of `Cc1cc(O)c(C(=O)/C=C/c2cccc([N+](=O)[O-])c2)c(=O)o1`, > 45.2 µg/mL; in that of `COc1ccccc1CNC(=O)c1cc(C(=O)CC(C)C)c[nH]1`, 1.6 µg/mL (≈ 5.09 µM).
Take `COc1ccc(CNC(=O)CCCSc2ccccc2)cc1`: the solubility (kinetic) stood at 2.4 µg/mL (≈ 7.61 µM).
With `COC(=O)c1ccccc1N=Cc1c(O)[nH]c(=S)[nH]c1=O` the figure was 6.1 µg/mL (≈ 20 µM); with `CC(=O)c1ccc(S(=O)(=O)N2CCN(CC#N)CC2)cc1`, 45.8 µg/mL (≈ 149 µM); with `CC(C)c1ccc(NS(=O)(=O)c2cccc3cccnc23)cc1`, < 0.3 µg/mL.
